This is an account of results in ChEMBL document CHEMBL3400087, “Modulating Acinetobacter baumannii biofilm development with molecules containing 3,4,5-trimethoxy-N,N',N'-trimethylbenzohydrazide moiety” (Bioorg Med Chem Lett, 2015).

One data set concerns RAW264.7. Briefly: Cytotoxicity against mouse RAW264.7 cells assessed as reduction in cell viability at >200 uM after 24 hrs by trypan blue-staining based microscopic analysis. The note with it: raw264.7, 24 h.
Data set [1] relates to Acinetobacter baumannii. Briefly: Inhibition of Acinetobacter baumannii AB5711 biofilm formation at 200 uM after 24 hrs by crystal violet staining-based static MBEC biofilm assay. Type of data set: functional, organism-based.
For data set [2], the system named is Acinetobacter baumannii. In words: Inhibition of Acinetobacter baumannii AB5711 biofilm formation assessed as inhibition of cell adherence to surface at 100 uM by crystal violet staining-based modified microtiter biofilm assay. Type of data set: functional, organism-based.
Data set [3] deals with Acinetobacter baumannii. Briefly: Inhibition of Acinetobacter baumannii AB5711 biofilm formation at 100 uM after 24 hrs by crystal violet staining-based static MBEC biofilm assay. Type of data set: functional, organism-based.
Data set [4] concerns Acinetobacter baumannii. Briefly: Inhibition of Acinetobacter baumannii AB5711 biofilm formation in 14-French silicone urethral catheter at 200 uM measured after overnight incubation by crystal violet staining-based spectrophotometry. Type of data set: functional, organism-based.

Activity calls are given as the source filed them. No cut-off for these calls is given here.

As for `CCNC(=S)NNC(=O)c1cc(OC)c(OC)c(OC)c1`, in the data set on RAW264.7, the Activity entry is given as “Toxic”. The inhibition entry with Acinetobacter baumannii [1], in the data set with Acinetobacter baumannii [2] and in the data set on Acinetobacter baumannii [4] was “Active” in each case. For the same compound, in the data set on Acinetobacter baumannii [3], the inhibition result is “inactive”.

For the compound `COc1cc(C(=O)N2N=C(C3CC3)CC2(O)C(F)(F)F)cc(OC)c1OC` (stereo not given), the Activity entry with RAW264.7 is on record as “Toxic”. Further, the inhibition entry in the data set on Acinetobacter baumannii [1], with Acinetobacter baumannii [2] and in the data set on Acinetobacter baumannii [4] was “Active” in each case. Besides, the inhibition entry in the data set with Acinetobacter baumannii [3] was “inactive”.

Regarding `COc1cc(C(=O)NN2c3ccccc3C(C)(C)C(C)(C)c3ccccc32)cc(OC)c1OC`, the Activity result with RAW264.7 was “Toxic”. The inhibition entry with Acinetobacter baumannii [1], with Acinetobacter baumannii [2] and with Acinetobacter baumannii [4] was “Active” in each case. In the data set on Acinetobacter baumannii [3], the inhibition entry was “inactive”.

In the case of `COc1ccccc1C(=O)NNC(=O)c1cc(OC)c(OC)c(OC)c1`, in the data set with RAW264.7, the Activity entry is recorded as “Toxic”. Further, the inhibition result in the data set on Acinetobacter baumannii [1] and in the data set with Acinetobacter baumannii [2] was “Active” in each case. In addition, the inhibition result in the data set with Acinetobacter baumannii [3] and in the data set on Acinetobacter baumannii [4] was “inactive” throughout.

Regarding `COc1cc(C(=O)NNC(=O)c2ccc(S(=O)(=O)C3CCC(C)CC3)cc2)cc(OC)c1OC` (stereo not given), in the data set on RAW264.7, the Activity entry was “Toxic”. Further, the inhibition result in the data set on Acinetobacter baumannii [1] and in the data set with Acinetobacter baumannii [2] was “Active” throughout. In addition, the inhibition result with Acinetobacter baumannii [3] and in the data set on Acinetobacter baumannii [4] was “inactive” in each case.

`COc1cc(C(=O)NNC(=O)c2cccc(Cl)c2)cc(OC)c1OC`: the Activity result with RAW264.7 was “Toxic”. The inhibition result in the data set on Acinetobacter baumannii [1], in the data set on Acinetobacter baumannii [2] and in the data set with Acinetobacter baumannii [4] was “Active” throughout. Besides, the inhibition entry in the data set on Acinetobacter baumannii [3] was “inactive”.

Regarding `NNC(=O)c1cc(O)c(O)c(O)c1`, in the data set with RAW264.7, the Activity entry is “Toxic”. For the same compound, the inhibition entry with Acinetobacter baumannii [1], in the data set on Acinetobacter baumannii [2] and in the data set on Acinetobacter baumannii [4] was “Active” throughout. Also, in the data set on Acinetobacter baumannii [3], the inhibition result is “inactive”.

As to `COc1cc(C(=O)NNC(=S)NC(C)(C)C)cc(OC)c1OC`, the Activity entry with RAW264.7 is reported as “Toxic”. In addition, the inhibition result with Acinetobacter baumannii [1], in the data set on Acinetobacter baumannii [2] and with Acinetobacter baumannii [4] was “Active” each time. Also, the inhibition result in the data set on Acinetobacter baumannii [3] is “inactive”.
